Experimental data taken from US8541418B2, “Inhibitors of polo-like kinase” (Elan Pharmaceutical, Inc., priority 2009, dated 2013).
Like-named read-outs stand apart in the source and are kept apart here.

Assays:
Assay type in all cases: biochemical
PLK1 = PLK1 (Homo sapiens, UniProt P53350); assay: PLK TR-FRET peptide assay, PLK1; settings: GST-PLK1, 60 min reaction
PLK2 = PLK2 (Homo sapiens, UniProt Q9NYY3); assay: PLK TR-FRET peptide assay, PLK2; settings: for IC50: read-out: Plk2 IC50; for relative PLK2 activity of the enantiomers: compared with the opposite enantiomer
PLK3 = PLK3 (Homo sapiens, UniProt Q9H4B4); assay: PLK TR-FRET peptide assay, PLK3; settings: GST-PLK3, 15 min reaction, read-out: Plk3 IC50
[1] = PLK TR-FRET peptide assay, GST-PLK2, 60 min reaction

Chain of PLK2 (Q9NYY3 whole entry): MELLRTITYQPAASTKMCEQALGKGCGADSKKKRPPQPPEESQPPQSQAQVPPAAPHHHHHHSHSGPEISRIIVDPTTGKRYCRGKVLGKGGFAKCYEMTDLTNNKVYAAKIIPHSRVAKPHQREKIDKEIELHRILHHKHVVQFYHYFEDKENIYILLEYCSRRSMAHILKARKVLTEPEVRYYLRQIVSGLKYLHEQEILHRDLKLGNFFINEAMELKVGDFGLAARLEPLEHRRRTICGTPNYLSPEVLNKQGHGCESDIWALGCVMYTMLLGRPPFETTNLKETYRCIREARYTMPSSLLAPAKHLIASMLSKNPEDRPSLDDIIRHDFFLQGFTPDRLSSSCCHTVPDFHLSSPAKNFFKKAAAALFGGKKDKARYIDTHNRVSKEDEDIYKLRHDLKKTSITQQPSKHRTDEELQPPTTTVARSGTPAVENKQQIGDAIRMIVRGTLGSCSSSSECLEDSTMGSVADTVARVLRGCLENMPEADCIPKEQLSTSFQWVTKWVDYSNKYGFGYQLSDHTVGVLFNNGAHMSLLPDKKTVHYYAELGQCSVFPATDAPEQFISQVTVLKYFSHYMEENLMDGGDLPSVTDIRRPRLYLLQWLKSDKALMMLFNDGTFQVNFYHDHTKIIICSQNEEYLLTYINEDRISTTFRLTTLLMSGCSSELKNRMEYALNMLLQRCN
Chain of PLK1 (P53350 whole entry): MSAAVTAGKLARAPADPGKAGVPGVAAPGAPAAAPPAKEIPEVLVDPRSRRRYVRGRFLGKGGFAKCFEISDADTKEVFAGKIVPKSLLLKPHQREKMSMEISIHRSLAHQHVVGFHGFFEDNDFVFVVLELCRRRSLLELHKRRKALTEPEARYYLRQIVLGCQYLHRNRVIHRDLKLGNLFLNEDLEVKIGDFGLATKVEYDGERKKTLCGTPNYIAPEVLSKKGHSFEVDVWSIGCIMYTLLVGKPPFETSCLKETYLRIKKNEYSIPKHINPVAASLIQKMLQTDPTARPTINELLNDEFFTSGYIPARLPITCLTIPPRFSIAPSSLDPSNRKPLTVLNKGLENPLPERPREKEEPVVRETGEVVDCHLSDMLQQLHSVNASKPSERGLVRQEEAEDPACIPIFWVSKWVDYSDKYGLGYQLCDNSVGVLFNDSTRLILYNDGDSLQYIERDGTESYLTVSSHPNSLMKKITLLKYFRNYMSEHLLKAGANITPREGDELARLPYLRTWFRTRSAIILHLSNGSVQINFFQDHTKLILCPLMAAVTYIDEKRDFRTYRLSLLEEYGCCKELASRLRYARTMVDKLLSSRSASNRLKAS
Chain of PLK3 (Q9H4B4 whole entry): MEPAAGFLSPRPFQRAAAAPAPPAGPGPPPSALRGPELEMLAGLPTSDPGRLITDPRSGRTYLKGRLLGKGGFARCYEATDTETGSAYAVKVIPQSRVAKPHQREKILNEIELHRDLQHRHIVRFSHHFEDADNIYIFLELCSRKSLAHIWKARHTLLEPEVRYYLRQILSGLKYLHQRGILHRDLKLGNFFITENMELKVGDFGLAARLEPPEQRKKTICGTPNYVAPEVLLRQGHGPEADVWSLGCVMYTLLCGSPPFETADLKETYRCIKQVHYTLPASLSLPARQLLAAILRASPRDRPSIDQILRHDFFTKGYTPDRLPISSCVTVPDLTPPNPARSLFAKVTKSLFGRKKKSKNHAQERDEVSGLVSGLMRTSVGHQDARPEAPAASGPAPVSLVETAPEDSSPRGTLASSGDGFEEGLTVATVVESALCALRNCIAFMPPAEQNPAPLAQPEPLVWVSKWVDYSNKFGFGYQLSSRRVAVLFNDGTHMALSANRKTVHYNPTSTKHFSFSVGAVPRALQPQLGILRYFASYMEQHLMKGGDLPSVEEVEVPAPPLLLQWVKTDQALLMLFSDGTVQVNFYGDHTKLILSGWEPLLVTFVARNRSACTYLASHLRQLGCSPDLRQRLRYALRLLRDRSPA

CC[C@@]12CCCCN1c1nc(-n3ccnc3-c3cc(F)c(F)c(F)c3)ncc1N(C)C2=O [Example 266, (S)-6a-ethyl-5-methyl-2-(2-(3,4,5-trifluorophenyl)-1H-imidazol-1-yl)-7,8,9,10-tetrahydro-5H-pyrido[2,1-h]pteridin-6(6aH)-one]
IC50 (PLK1): > 50 µM | IC50 (PLK2; [1]): < 1 µM | relative PLK2 activity of the enantiomers (PLK2): more active compound | IC50 (PLK3): > 50 µM

CC[C@]12CCCCN1c1nc(-n3ccnc3-c3cc(F)c(F)c(F)c3)ncc1N(C)C2=O [Example 267, (R)-6a-ethyl-5-methyl-2-(2-(3,4,5-trifluorophenyl)-1H-imidazol-1-yl)-7,8,9,10-tetrahydro-5H-pyrido[2,1-h]pteridin-6(6aH)-one]
IC50 (PLK1): > 50 µM | IC50 (PLK2; [1]): > 50 µM | IC50 (PLK3): > 50 µM

CC[C@@H]1C(=O)N(C)c2cnc(-n3ccnc3-c3ccc(F)cc3F)nc2N1C1CCOC1 (stereo partly drawn) [Example 268, (7R)-2-(2-(2,4-difluorophenyl)-1H-imidazol-1-yl)-7-ethyl-5-methyl-8-(tetrahydrofuran-3-yl)-7,8-dihydropteridin-6(5H)-one]
IC50 (PLK1): 1 to 10 µM | IC50 (PLK2; [1]): < 1 µM | IC50 (PLK3): 1 to 10 µM

CC[C@@]12CCCCN1c1nc(-n3ccnc3-c3ccc(F)cc3F)ncc1N(C)C2=O [Example 269, (S)-2-(2-(2,4-difluorophenyl)-1H-imidazol-1-yl)-6a-ethyl-5-methyl-7,8,9,10-tetrahydro-5H-pyrido[2,1-h]pteridin-6(6aH)-one]
IC50 (PLK1): 10 to 50 µM | IC50 (PLK2; [1]): < 1 µM | relative PLK2 activity of the enantiomers (PLK2): more active compound | IC50 (PLK3): 10 to 50 µM

CC[C@]12CCCCN1c1nc(-n3ccnc3-c3ccc(F)cc3F)ncc1N(C)C2=O [Example 270, (R)-2-(2-(2,4-difluorophenyl)-1H-imidazol-1-yl)-6a-ethyl-5-methyl-7,8,9,10-tetrahydro-5H-pyrido[2,1-h]pteridin-6(6aH)-one]
IC50 (PLK1): > 50 µM | IC50 (PLK2; [1]): 10 to 50 µM | IC50 (PLK3): > 50 µM

CC[C@@H]1C(=O)N(C)c2cnc(-n3ccnc3-c3ccc(F)cn3)nc2N1C1CCCC1 [Example 271, (R)-8-cyclopentyl-7-ethyl-2-(2-(5-fluoropyridin-2-yl)-1H-imidazol-1-yl)-5-methyl-7,8-dihydropteridin-6(5H)-one]
IC50 (PLK1): < 1 µM | IC50 (PLK2; [1]): < 1 µM | IC50 (PLK3): 1 to 10 µM

CC[C@@]12CCCN1c1nc(-n3ccnc3-c3cccc(-c4cccnc4)c3)ncc1N(C)C2=O [Example 272, (S)-6a-ethyl-5-methyl-2-(2-(3-(pyridin-3-yl)phenyl)-1H-imidazol-1-yl)-6a,7,8,9-tetrahydropyrrolo[2,1-h]pteridin-6(5H)-one]
IC50 (PLK1): 10 to 50 µM | IC50 (PLK2; [1]): < 1 µM | IC50 (PLK3): 10 to 50 µM

CC[C@@]12CCCN1c1nc(-n3ccnc3-c3cccc(-n4cncn4)c3)ncc1N(C)C2=O [Example 273, (S)-2-(2-(3-(1H-1,2,4-triazol-1-yl)phenyl)-1H-imidazol-1-yl)-6a-ethyl-5-methyl-6a,7,8,9-tetrahydropyrrolo[2,1-h]pteridin-6(5H)-one]
IC50 (PLK1): 10 to 50 µM | IC50 (PLK2): < 1 µM | IC50 (PLK3): > 50 µM

CC[C@@]12CCCN1c1nc(-n3ccnc3-c3cccc(-n4cccn4)c3)ncc1N(C)C2=O [Example 276, (S)-2-(2-(3-(1H-pyrazol-1-yl)phenyl)-1H-imidazol-1-yl)-6a-ethyl-5-methyl-6a,7,8,9-tetrahydropyrrolo[2,1-h]pteridin-6(5H)-one]
IC50 (PLK1): 10 to 50 µM | IC50 (PLK2; [1]): < 1 µM | IC50 (PLK3): > 50 µM

CC[C@@H]1C(=O)N(C)c2cnc(-n3ccnc3-c3ccc(F)cc3F)nc2N1CCC(F)(F)F [Example 277, (R)-2-(2-(2,4-difluorophenyl)-1H-imidazol-1-yl)-7-ethyl-5-methyl-8-(3,3,3-trifluoropropyl)-7,8-dihydropteridin-6(5H)-one]
IC50 (PLK1): 1 to 10 µM | IC50 (PLK2; [1]): < 1 µM | IC50 (PLK3): 1 to 10 µM

CC[C@@]12CCCN1c1nc(N3CCN=C3c3ccccc3)ncc1N(C)C2=O [Example 281, (S)-6a-ethyl-5-methyl-2-(2-phenyl-4,5-dihydro-1H-imidazol-1-yl)-6a,7,8,9-tetrahydropyrrolo[2,1-h]pteridin-6(5H)-one]
IC50 (PLK1): > 50 µM | IC50 (PLK2; [1]): < 1 µM | IC50 (PLK3): 10 to 50 µM

CC[C@@H]1C(=O)N(C)c2cnc(-n3ccnc3-c3ccc(F)cc3Cl)nc2N1CCC(F)(F)F [Example 282, (R)-2-(2-(2-chloro-4-fluorophenyl)-1H-imidazol-1-yl)-7-ethyl-5-methyl-8-(3,3,3-trifluoropropyl)-7,8-dihydropteridin-6(5H)-one]
IC50 (PLK1): 10 to 50 µM | IC50 (PLK2; [1]): < 1 µM | IC50 (PLK3): 10 to 50 µM

CCC1C(=O)N(C)c2cnc(-n3cc[n+](C)c3-c3ccccc3)nc2N1NC (stereo not shown) [Example 284, 1-(7-ethyl-5-methyl-8-(methylamino)-6-oxo-5,6,7,8-tetrahydropteridin-2-yl)-3-methyl-2-phenyl-1H-imidazol-3-ium]
IC50 (PLK1): > 50 µM | IC50 (PLK2; [1]): > 50 µM | IC50 (PLK3): > 50 µM

CC[C@@]12CCCN1c1nc(-n3ccnc3)ncc1N(C)C2=O [Example 285, (S)-6a-ethyl-2-(1H-imidazol-1-yl)-5-methyl-6a,7,8,9-tetrahydropyrrolo[2,1-h]pteridin-6(5H)-one]
IC50 (PLK1): > 50 µM | IC50 (PLK2; [1]): 10 to 50 µM | IC50 (PLK3): > 50 µM

CC[C@@]12CCCCN1c1nc(-n3ccnc3)ncc1N(C)C2=O [Example 286, (S)-6a-ethyl-2-(1H-imidazol-1-yl)-5-methyl-7,8,9,10-tetrahydro-5H-pyrido[2,1-h]pteridin-6(6aH)-one]
IC50 (PLK1): > 50 µM | IC50 (PLK2; [1]): 1 to 10 µM | relative PLK2 activity of the enantiomers (PLK2): more active compound | IC50 (PLK3): > 50 µM

CC[C@]12CCCCN1c1nc(-n3ccnc3)ncc1N(C)C2=O [Example 287, (R)-6a-ethyl-2-(1H-imidazol-1-yl)-5-methyl-7,8,9,10-tetrahydro-5H-pyrido[2,1-h]pteridin-6(6aH)-one]
IC50 (PLK1): > 50 µM | IC50 (PLK2; [1]): > 50 µM | IC50 (PLK3): > 50 µM

CC[C@@H]1C(=O)N(C)c2cnc(-n3ccnc3C3CC3)nc2N1C1CCCC1 [Example 288, (R)-8-cyclopentyl-2-(2-cyclopropyl-1H-imidazol-1-yl)-7-ethyl-5-methyl-7,8-dihydropteridin-6(5H)-one]
IC50 (PLK1): 1 to 10 µM | IC50 (PLK2; [1]): < 1 µM | IC50 (PLK3): 1 to 10 µM

CC(C)N1c2nc(-n3ccnc3-c3ccccc3)ncc2N(C)C(=O)C12CCC2 [Example 289, 8′-isopropyl-5′-methyl-2′-(2-phenyl-1H-imidazol-1-yl)-5′H-Spiro[cyclobutane-1,7′-pteridin]-6′(8′H)-one]
IC50 (PLK1): 1 to 10 µM | IC50 (PLK2; [1]): < 1 µM | IC50 (PLK3): 10 to 50 µM

CC[C@@H]1C(=O)N(C)c2cnc(-n3ccnc3Cl)nc2N1C1CCCC1 [Example 292, (R)-2-(2-chloro-1H-imidazol-1-yl)-8-cyclopentyl-7-ethyl-5-methyl-7,8-dihydropteridin-6(5H)-one]
IC50 (PLK1): 1 to 10 µM | IC50 (PLK2; [1]): < 1 µM | IC50 (PLK3): 10 to 50 µM

CN1C(=O)[C@@H](CC(F)(F)F)N(CCC(F)(F)F)c2nc(-n3ccnc3-c3ccc(F)cc3F)ncc21 [Example 293, (R)-2-(2-(2,4-difluorophenyl)-1H-imidazol-1-yl)-5-methyl-7-(2,2,2-trifluoroethyl)-8-(3,3,3-trifluoropropyl)-7,8-dihydropteridin-6(5H)-one]
IC50 (PLK1): 1 to 10 µM | IC50 (PLK2; [1]): < 1 µM | relative PLK2 activity of the enantiomers (PLK2): more active compound | IC50 (PLK3): 10 to 50 µM
